Results as given in US20250353891A1 (MEDIMMUNE LIMITED, priority 2022, published 2025).
Starred links: 1 amine or outer side, 2 acyl side, 3 side chain; linkers in the order of their positions; H or OH if unused. Non-standard residues stand in square brackets, D forms with d. Residues, ends and D or L forms follow the SMILES beside them. Groups on a side chain read outwards from the residue. *: point of attachment. C20 diacid = O=C(O)CCCCCCCCCCCCCCCCCCC(=O)*; C18 diacid = O=C(O)CCCCCCCCCCCCCCCCC(=O)*; γGlu = O=C(O)[C@H](CCC(=O)[*:2])N[*:1]; αMeF = C[C@](N)(Cc1ccccc1)C(=O)O; AEEA = NCCOCCOCC(=O)O; Aib = CC(C)(N)C(=O)O

What was measured:
[1] = target: human glucagon receptor (hGCGR) (Homo sapiens, UniProt P47871); experiment: cAMP production (HTRF) in CHO cells expressing hGCGR; type: cell-based; design: expressed in transfected cells; settings: Table 6, peptides modified at position 17; cAMP in CHO hGCGR cells; geometric mean; read-out: hGluc-R EC50
Chain of human glucagon receptor (hGCGR) (P47871 26-477): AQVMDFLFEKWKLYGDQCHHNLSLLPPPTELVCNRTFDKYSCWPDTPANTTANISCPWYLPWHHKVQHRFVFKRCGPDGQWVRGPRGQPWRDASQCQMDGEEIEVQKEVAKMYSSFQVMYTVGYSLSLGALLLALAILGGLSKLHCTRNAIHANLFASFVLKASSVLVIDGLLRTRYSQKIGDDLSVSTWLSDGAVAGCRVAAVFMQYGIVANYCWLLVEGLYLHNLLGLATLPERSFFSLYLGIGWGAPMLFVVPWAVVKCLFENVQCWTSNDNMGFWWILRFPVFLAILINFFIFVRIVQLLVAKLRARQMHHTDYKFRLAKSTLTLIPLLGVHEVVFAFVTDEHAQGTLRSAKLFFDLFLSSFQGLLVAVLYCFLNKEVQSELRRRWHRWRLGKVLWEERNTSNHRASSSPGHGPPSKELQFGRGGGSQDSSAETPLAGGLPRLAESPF
How it was run: (§1)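 Cells were resuspended in assay buffer at batch-optimized density, typically 1×10^5 cells/mL for hGLP-1R and 2×10^5 cells/mL for hGCGR. After 30 min incubation at room temperature with compound, cAMP was measured by two-step HTRF. EC50 values came from 4-parameter logistic fits of % Delta F.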

[2] = target: human GLP-1 receptor (hGLP-1R) (Homo sapiens, UniProt P43220); experiment: cAMP production (HTRF) in CHO cells expressing hGLP-1R; type: cell-based; design: expressed in transfected cells; settings: for EC50: Table 6, peptides modified at position 17, cAMP in CHO hGLP-1R cells, geometric mean, read-out: hGLP-1R EC50; for % Relative Potency Ratio: Table 6, % GLP-1R activity relative to GLP-1 / % GlucR activity relative to glucagon
Chain of human GLP-1 receptor (hGLP-1R) (P43220 24-463): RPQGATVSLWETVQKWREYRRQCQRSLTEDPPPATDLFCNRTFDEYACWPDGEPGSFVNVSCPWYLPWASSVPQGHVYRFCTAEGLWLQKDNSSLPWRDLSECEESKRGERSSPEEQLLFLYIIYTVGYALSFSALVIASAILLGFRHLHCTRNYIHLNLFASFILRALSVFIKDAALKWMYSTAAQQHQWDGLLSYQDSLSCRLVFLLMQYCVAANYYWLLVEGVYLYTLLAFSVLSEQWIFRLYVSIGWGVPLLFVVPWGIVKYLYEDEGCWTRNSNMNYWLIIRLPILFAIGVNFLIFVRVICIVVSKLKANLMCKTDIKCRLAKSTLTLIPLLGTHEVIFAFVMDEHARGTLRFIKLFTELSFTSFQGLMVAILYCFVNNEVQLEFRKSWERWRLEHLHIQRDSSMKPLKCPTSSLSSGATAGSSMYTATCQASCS
How it was run: as §1

Row | SMILES | EC50 [1] | EC50 [2] | % Relative Potency Ratio [2]
1 | CC(C)C[C@H](NC(=O)[C@H](Cc1c[nH]c2ccccc12)NC(=O)[C@H](CCC(N)=O)NC(=O)[C@@H](NC(=O)[C@H](Cc1ccccc1)NC(=O)[C@H](CC(=O)O)NC(=O)[C@H](CCC(N)=O)NC(=O)[C@H](C)NC(=O)[C@H](CCCNC(=N)N)NC(=O)[C@H](CCCCNC(=O)COCCOCCNC(=O)COCCOCCNC(=O)CC[C@H](NC(=O)CCCCCCCCCCCCCCCCC(=O)O)C(=O)O)NC(=O)[C@@H](NC(=O)[C@H](CC(=O)O)NC(=O)[C@H](CC(C)C)NC(=O)[C@](C)(Cc1ccccc1)NC(=O)[C@H](CCCCN)NC(=O)[C@H](CO)NC(=O)[C@@H](NC(=O)[C@H](CC(=O)O)NC(=O)[C@H](CO)NC(=O)[C@@H](NC(=O)[C@H](Cc1ccccc1)NC(=O)[C@@H](NC(=O)CNC(=O)[C@H](CCC(N)=O)NC(=O)C(C)(C)NC(=O)[C@@H](N)Cc1c[nH]cn1)[C@@H](C)O)[C@@H](C)O)C(C)C)[C@@H](C)O)C(C)C)C(=O)N[C@@H](CC(C)C)C(=O)N[C@@H](CCCNC(=N)N)C(=O)NC(C)(C)C(=O)N[C@@H](C)C(=O)O [Peptide 499] (H-H[Aib]QGTFTSDVSK[αMeF]LDTK([AEEA-AEEA-γGlu-C18 diacid])RAQDFVQWLLR[Aib]A-OH; N-terminus assumed) | 0.0788 nM | 0.0406 nM | 3.8
2 | CC(C)C[C@H](NC(=O)[C@H](Cc1c[nH]c2ccccc12)NC(=O)[C@H](CCC(N)=O)NC(=O)[C@@H](NC(=O)[C@H](Cc1ccccc1)NC(=O)[C@H](CC(=O)O)NC(=O)[C@H](CCC(N)=O)NC(=O)[C@H](C)NC(=O)[C@H](CCCNC(=N)N)NC(=O)[C@H](CCCCNC(=O)COCCOCCNC(=O)COCCOCCNC(=O)CC[C@H](NC(=O)CCCCCCCCCCCCCCCCCCC(=O)O)C(=O)O)NC(=O)[C@@H](NC(=O)[C@H](CC(=O)O)NC(=O)[C@H](CC(C)C)NC(=O)[C@](C)(Cc1ccccc1)NC(=O)[C@H](CCCCN)NC(=O)[C@H](CO)NC(=O)[C@@H](NC(=O)[C@H](CC(=O)O)NC(=O)[C@H](CO)NC(=O)[C@@H](NC(=O)[C@H](Cc1ccccc1)NC(=O)[C@@H](NC(=O)CNC(=O)[C@H](CCC(N)=O)NC(=O)C(C)(C)NC(=O)[C@@H](N)Cc1c[nH]cn1)[C@@H](C)O)[C@@H](C)O)C(C)C)[C@@H](C)O)C(C)C)C(=O)N[C@@H](CC(C)C)C(=O)N[C@@H](CCCNC(=N)N)C(=O)NC(C)(C)C(=O)N[C@@H](C)C(=O)O [Peptide 500] (H-H[Aib]QGTFTSDVSK[αMeF]LDTK([AEEA-AEEA-γGlu-C20 diacid])RAQDFVQWLLR[Aib]A-OH; N-terminus assumed) | 0.101 nM | 0.102 nM | 2.0
3 | CC(C)C[C@H](NC(=O)[C@H](Cc1c[nH]c2ccccc12)NC(=O)[C@H](CCC(N)=O)NC(=O)[C@@H](NC(=O)[C@H](Cc1ccccc1)NC(=O)[C@H](CC(=O)O)NC(=O)[C@H](CCCNC(=N)N)NC(=O)[C@H](C)NC(=O)[C@H](CCCNC(=N)N)NC(=O)[C@H](CCCCNC(=O)COCCOCCNC(=O)COCCOCCNC(=O)CC[C@H](NC(=O)CCCCCCCCCCCCCCCCC(=O)O)C(=O)O)NC(=O)[C@@H](NC(=O)[C@H](CC(=O)O)NC(=O)[C@H](CC(C)C)NC(=O)[C@](C)(Cc1ccccc1)NC(=O)[C@H](CCCCN)NC(=O)[C@H](CO)NC(=O)[C@@H](NC(=O)[C@H](CC(=O)O)NC(=O)[C@H](CO)NC(=O)[C@@H](NC(=O)[C@H](Cc1ccccc1)NC(=O)[C@@H](NC(=O)CNC(=O)[C@H](CCC(N)=O)NC(=O)C(C)(C)NC(=O)[C@@H](N)Cc1c[nH]cn1)[C@@H](C)O)[C@@H](C)O)C(C)C)[C@@H](C)O)C(C)C)C(=O)N[C@@H](CC(C)C)C(=O)N[C@@H](CCCNC(=N)N)C(=O)NC(C)(C)C(=O)N[C@@H](C)C(=O)O [Peptide 501] (H-H[Aib]QGTFTSDVSK[αMeF]LDTK([AEEA-AEEA-γGlu-C18 diacid])RARDFVQWLLR[Aib]A-OH; N-terminus assumed) | 0.0756 nM | 0.0265 nM | 5.6
4 | CC(C)C[C@H](NC(=O)[C@H](Cc1c[nH]c2ccccc12)NC(=O)[C@H](CCC(N)=O)NC(=O)[C@@H](NC(=O)[C@H](Cc1ccccc1)NC(=O)[C@H](CC(=O)O)NC(=O)[C@H](CCCNC(=N)N)NC(=O)[C@H](C)NC(=O)[C@H](CCCNC(=N)N)NC(=O)[C@H](CCCCNC(=O)COCCOCCNC(=O)COCCOCCNC(=O)CC[C@H](NC(=O)CCCCCCCCCCCCCCCCCCC(=O)O)C(=O)O)NC(=O)[C@@H](NC(=O)[C@H](CC(=O)O)NC(=O)[C@H](CC(C)C)NC(=O)[C@](C)(Cc1ccccc1)NC(=O)[C@H](CCCCN)NC(=O)[C@H](CO)NC(=O)[C@@H](NC(=O)[C@H](CC(=O)O)NC(=O)[C@H](CO)NC(=O)[C@@H](NC(=O)[C@H](Cc1ccccc1)NC(=O)[C@@H](NC(=O)CNC(=O)[C@H](CCC(N)=O)NC(=O)C(C)(C)NC(=O)[C@@H](N)Cc1c[nH]cn1)[C@@H](C)O)[C@@H](C)O)C(C)C)[C@@H](C)O)C(C)C)C(=O)N[C@@H](CC(C)C)C(=O)N[C@@H](CCCNC(=N)N)C(=O)NC(C)(C)C(=O)N[C@@H](C)C(=O)O [Peptide 502] (H-H[Aib]QGTFTSDVSK[αMeF]LDTK([AEEA-AEEA-γGlu-C20 diacid])RARDFVQWLLR[Aib]A-OH; N-terminus assumed) | 0.175 nM | 0.0821 nM | 4.2
5 | CC(C)C[C@H](NC(=O)[C@H](Cc1c[nH]c2ccccc12)NC(=O)[C@H](CCCNC(=N)N)NC(=O)[C@@H](NC(=O)[C@H](Cc1ccccc1)NC(=O)[C@H](CC(=O)O)NC(=O)[C@H](CCC(N)=O)NC(=O)[C@H](C)NC(=O)[C@H](CCCNC(=N)N)NC(=O)[C@H](CCCCNC(=O)COCCOCCNC(=O)COCCOCCNC(=O)CC[C@H](NC(=O)CCCCCCCCCCCCCCCCCCC(=O)O)C(=O)O)NC(=O)[C@@H](NC(=O)[C@H](CC(=O)O)NC(=O)[C@H](CC(C)C)NC(=O)[C@](C)(Cc1ccccc1)NC(=O)[C@H](CCCCN)NC(=O)[C@H](CO)NC(=O)[C@@H](NC(=O)[C@H](CC(=O)O)NC(=O)[C@H](CO)NC(=O)[C@@H](NC(=O)[C@H](Cc1ccccc1)NC(=O)[C@@H](NC(=O)CNC(=O)[C@H](CCC(N)=O)NC(=O)C(C)(C)NC(=O)[C@@H](N)Cc1c[nH]cn1)[C@@H](C)O)[C@@H](C)O)C(C)C)[C@@H](C)O)C(C)C)C(=O)N[C@@H](CC(C)C)C(=O)N[C@@H](CCC(=O)O)C(=O)NC(C)(C)C(=O)N[C@@H](CCCCN)C(=O)O [Peptide 503] | 0.0849 nM | 0.0812 nM | 2.1
6 | CC(C)C[C@H](NC(=O)[C@H](Cc1c[nH]c2ccccc12)NC(=O)[C@H](CCCNC(=N)N)NC(=O)[C@@H](NC(=O)[C@H](Cc1ccccc1)NC(=O)[C@H](CC(=O)O)NC(=O)[C@H](CCC(N)=O)NC(=O)[C@H](C)NC(=O)[C@H](CCCNC(=N)N)NC(=O)[C@H](CCCCNC(=O)COCCOCCNC(=O)COCCOCCNC(=O)CC[C@H](NC(=O)CCCCCCCCCCCCCCCCCCC(=O)O)C(=O)O)NC(=O)[C@H](CO)NC(=O)[C@H](CCC(=O)O)NC(=O)[C@H](CC(C)C)NC(=O)[C@](C)(Cc1ccccc1)NC(=O)[C@H](CCCCN)NC(=O)[C@H](CO)NC(=O)[C@@H](NC(=O)[C@H](CC(=O)O)NC(=O)[C@H](CO)NC(=O)[C@@H](NC(=O)[C@H](Cc1ccccc1)NC(=O)[C@@H](NC(=O)CNC(=O)[C@H](CCC(N)=O)NC(=O)C(C)(C)NC(=O)[C@@H](N)Cc1c[nH]cn1)[C@@H](C)O)[C@@H](C)O)C(C)C)C(C)C)C(=O)N[C@@H](CC(C)C)C(=O)N[C@@H](CCC(=O)O)C(=O)NC(C)(C)C(=O)N[C@@H](CCCCN)C(=O)O [Peptide 504] | 0.551 nM | 0.124 nM | 8.8
7 | CC(C)C[C@H](NC(=O)[C@H](Cc1c[nH]c2ccccc12)NC(=O)[C@H](CCC(N)=O)NC(=O)[C@@H](NC(=O)[C@H](Cc1ccccc1)NC(=O)[C@H](CC(=O)O)NC(=O)[C@H](CCC(N)=O)NC(=O)[C@H](C)NC(=O)[C@H](CCCNC(=N)N)NC(=O)[C@H](CCCCNC(=O)COCCOCCNC(=O)COCCOCCNC(=O)CC[C@H](NC(=O)CCCCCCCCCCCCCCCCCCC(=O)O)C(=O)O)NC(=O)[C@@H](NC(=O)[C@H](CC(=O)O)NC(=O)[C@H](CC(C)C)NC(=O)[C@](C)(Cc1ccccc1)NC(=O)[C@H](CCCCN)NC(=O)[C@H](CO)NC(=O)[C@@H](NC(=O)[C@H](CC(=O)O)NC(=O)[C@H](CO)NC(=O)[C@@H](NC(=O)[C@H](Cc1ccccc1)NC(=O)[C@@H](NC(=O)CNC(=O)[C@H](CCC(N)=O)NC(=O)C(C)(C)NC(=O)[C@@H](N)Cc1c[nH]cn1)[C@@H](C)O)[C@@H](C)O)C(C)C)[C@@H](C)O)C(C)C)C(=O)N[C@@H](CC(C)C)C(=O)N[C@@H](CCC(=O)O)C(=O)NC(C)(C)C(=O)N[C@@H](CCCCN)C(N)=O [Peptide 505] (H-H[Aib]QGTFTSDVSK[αMeF]LDTK([AEEA-AEEA-γGlu-C20 diacid])RAQDFVQWLLE[Aib]K-NH2) | 0.191 nM | 0.0421 nM | 9.0
